Experimental data: patent publication US20100267561A1, “HERBICIDAL PYRIDAZINONE DERIVATIVES” (priority 2007, published 2010)

What was measured:
Assay type in all cases: in vivo
[1] = test system: corn (Zea mays); assay: Test A pre-/postemergence plant response
In short: (§1)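 Seeds sown in loam–sand blend; test chemicals in non-phytotoxic solvent with surfactant applied preemergence as directed soil spray and, concurrently, postemergence to plants 2–10 cm tall at one- to two-leaf stage. Greenhouse ~10 days, then visual injury rating vs untreated controls on 0–100 scale (0 = no effect, 100 = complete control).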

[2] = test system: giant foxtail (Setaria faberi); assay: Test A pre-/postemergence plant response
In short: as §1

[3] = test system: Italian ryegrass (Lolium multiflorum); assay: Test B pre-/postemergence plant response; details: for Ryegrass, Italian plant response rating: 8 g ai/ha
From the text: (§2) Seeds of plant species selected from blackgrass (Alopecurus myosuroides), downy bromegrass (Bromus tectorum), green foxtail (Setaria viridis), Italian ryegrass (Lolium multiflorum), wheat (Triticum aestivum), wild oat (Avena fatua), catchweed bedstraw (Galium aparine), bermudagrass (Cynodon dactylon), surinam grass (Brachiaria decumbens), cocklebur (Xanthium strumarium), corn (Zea mays), large crabgrass (Digitaria sanguinalis), woolly cupgrass (Eriochloa villosa), giant foxtail (Setaria faberii), goosegrass (Eleusine indica), johnsongrass (Sorghum halepense), kochia (Kochia scoparia), lambsquarters (Chenopodium album), morningglory (Ipomoea coccinea), eastern black (E.B.) nightshade (Solanum ptycanthum), yellow nutsedge (Cyperus esculentus), pigweed (Amaranthus retroflexus), common ragweed (Ambrosia elation), Russian thistle (Salsola iberica), soybean (Glycine max), common (oilseed) sunflower (Helianthus annuus), and velvetleaf (Abutilon theophrasti) were planted and treated preemergence with test chemicals formulated in a non-phytotoxic solvent mixture which included a surfactant.
(§3) At the same time, plants selected from these crop and weed species and also winter barley (Hordeum vulgare), canarygrass (Phalaris minor), chickweed (Stellaria media) and windgrass (Apera spica-venti) were treated with postemergence applications of some of the test chemicals formulated in the same manner. Plants ranged in height from 2 to 18 cm (1- to 4-leaf stage) for postemergence treatments.
(§4) Plant species in the flooded paddy test consisted of rice (Oryza sativa), umbrella sedge (Cyperus difformis), ducksalad (Heteranthera limosa) and barnyardgrass (Echinochloa crus-galli) grown to the 2-leaf stage for testing. At time of treatment, test pots were flooded to 3 cm above the soil surface, treated by application of test compounds directly to the paddy water, and then maintained at that water depth for the duration of the test. Treated plants and controls were maintained in a greenhouse for 13 to 15 days, after which time all species were compared to controls and visually evaluated. Plant response ratings, summarized in Table B, are based on a scale of 0 to 100 where 0 is no effect and 100 is complete control. A dash (-) response means no test result.

[4] = test system: bermudagrass (Cynodon dactylon); assay: Test B pre-/postemergence plant response; details: for Bermudagrass plant response rating: 8 g ai/ha
From the text: as §2, §3, §4

[5] = test system: common (oilseed) sunflower (Helianthus annuus); assay: Test B pre-/postemergence plant response; details: Preemergence
From the text: as §2, §3, §4

[6] = test system: eastern black (E.B.) nightshade (Solanum ptycanthum); assay: Test B pre-/postemergence plant response; details: Preemergence
From the text: as §2, §3, §4

[7] = test system: johnsongrass (Sorghum halepense); assay: Test B pre-/postemergence plant response; details: for Johnsongrass plant response rating: 8 g ai/ha
From the text: as §2, §3, §4

[8] = test system: kochia (Kochia scoparia); assay: Test B pre-/postemergence plant response; details: for Kochia plant response rating: 8 g ai/ha
From the text: as §2, §3, §4

[9] = test system: soybean (Glycine max); assay: Test B pre-/postemergence plant response; details: for Soybean plant response rating: 8 g ai/ha
From the text: as §2, §3, §4

[10] = test system: velvetleaf (Abutilon theophrasti); assay: Test B pre-/postemergence plant response; details: for Velvetleaf plant response rating: 8 g ai/ha
From the text: as §2, §3, §4

[11] = test system: wheat (Triticum aestivum); assay: Test B pre-/postemergence plant response; details: for Wheat plant response rating: 8 g ai/ha
From the text: as §2, §3, §4

[12] = test system: yellow nutsedge (Cyperus esculentus); assay: Test B pre-/postemergence plant response; details: for Nutsedge, Yellow plant response rating: 8 g ai/ha
From the text: as §2, §3, §4

[13] = Postemergence, 31 g ai/ha, 0 to 100 scale, 0 no effect, 100 complete control
[14] = Postemergence, 125 g ai/ha, 0 to 100 scale, 0 no effect, 100 complete control
[15] = Preemergence, 31 g ai/ha, 0 to 100 scale, 0 is no effect, 100 is complete control
[16] = Preemergence, 125 g ai/ha, 0 to 100 scale (0 no effect, 100 complete control)
[17] = Postemergence, 16 g ai/ha, scale 0 to 100
[18] = Postemergence, 31 g ai/ha, scale 0 to 100, 0 no effect, 100 complete control
[19] = Postemergence, 62 g ai/ha, scale 0 to 100, 0 no effect, 100 complete control
[20] = Preemergence, 16 g ai/ha, scale 0 to 100 (0 no effect, 100 complete control)
[21] = Preemergence, 31 g ai/ha, 0 to 100 scale, 0 no effect, 100 complete control
[22] = Preemergence, 62 g ai/ha, scale 0 to 100
[23] = 16 g ai/ha, scale 0 to 100 (0 no effect, 100 complete control)
[24] = 31 g ai/ha, 0 to 100 scale, 0 no effect, 100 complete control

Cc1cc(-c2ccc(Cl)cc2)nn1-c1c(OC(=O)c2cccc(Cl)c2)cnn(C)c1=O [Compound 32]
Plant response rating, Corn [1, 13]: 0 | Plant response rating, Corn [1, 14]: 50 | Plant response rating, Corn [1, 15]: 0 | Plant response rating, Corn [1, 16]: 60 | Plant response rating, Foxtail, Giant [2, 13]: 10 | Plant response rating, Foxtail, Giant [2, 14]: 90 | Plant response rating, Foxtail, Giant [2, 15]: 90 | Plant response rating, Foxtail, Giant [2, 16]: 100 | Ryegrass, Italian plant response rating ([3]; postemergence, 0-100 scale): 5 | Plant response rating, Ryegrass, Italian [3, 17]: 85 | Plant response rating, Ryegrass, Italian [3, 18]: 95 | Plant response rating, Ryegrass, Italian [3, 19]: 95 | Plant response rating, Ryegrass, Italian [3, 20]: 100 | Plant response rating, Ryegrass, Italian [3, 21]: 100 | Plant response rating, Ryegrass, Italian [3, 22]: 100 | Ryegrass, Italian plant response rating ([3]; Preemergence, scale 0 to 100): 90 | Bermudagrass plant response rating ([4]; postemergence, 0-100 scale): 60 | Plant response rating, Bermudagrass [4, 17]: 65 | Plant response rating, Bermudagrass [4, 18]: 100 | Plant response rating, Bermudagrass [4, 19]: 100 | Bermudagrass plant response rating ([4]; Preemergence, scale 0 to 100 (0 no effect, 100 complete control)): 0 | Plant response rating, Bermudagrass [4, 20]: 0 | Plant response rating, Bermudagrass [4, 21]: 0 | Plant response rating, Bermudagrass [4, 22]: 0 | Plant response rating, Sunflower [5, 23]: 0 | Plant response rating, Sunflower [5, 24]: 0 | Plant response rating, Sunflower ([5]; 62 g ai/ha, scale 0 to 100): 0 | Sunflower plant response rating ([5]; 8 g ai/ha, scale 0 to 100): 0 | Plant response rating, Nightshade, E. B. [6, 23]: 0 | Plant response rating, Nightshade, E. B. [6, 24]: 0 | Plant response rating, Nightshade, E. B. ([6]; 62 g ai/ha, scale 0 to 100): 0 | Nightshade, E. B. plant response rating ([6]; 8 g ai/ha, scale 0 to 100): 0 | Johnsongrass plant response rating ([7]; postemergence, 0-100 scale): 50 | Plant response rating, Johnsongrass [7, 17]: 70 | Plant response rating, Johnsongrass [7, 18]: 98 | Plant response rating, Johnsongrass [7, 19]: 98 | Plant response rating, Johnsongrass [7, 20]: 75 | Plant response rating, Johnsongrass [7, 21]: 85 | Plant response rating, Johnsongrass [7, 22]: 90 | Johnsongrass plant response rating ([7]; Preemergence, scale 0 to 100): 65 | Kochia plant response rating ([8]; postemergence, 0-100 scale): 0 | Plant response rating, Kochia [8, 17]: 0 | Plant response rating, Kochia [8, 18]: 0 | Plant response rating, Kochia [8, 19]: 0 | Plant response rating, Kochia [8, 20]: 0 | Plant response rating, Kochia [8, 21]: 0 | Plant response rating, Kochia [8, 22]: 0 | Kochia plant response rating ([8]; Preemergence, scale 0 to 100): 0 | Soybean plant response rating ([9]; postemergence, 0-100 scale): 0 | Plant response rating, Soybean [9, 17]: 0 | Plant response rating, Soybean [9, 19]: 0 | Plant response rating, Soybean [9, 20]: 0 | Plant response rating, Soybean [9, 21]: 0 | Plant response rating, Soybean [9, 22]: 0 | Soybean plant response rating ([9]; Preemergence, scale 0 to 100): 0 | Velvetleaf plant response rating ([10]; postemergence, 0-100 scale): 0 | Plant response rating, Velvetleaf [10, 17]: 0 | Plant response rating, Velvetleaf [10, 19]: 0 | Plant response rating, Velvetleaf [10, 20]: 0 | Plant response rating, Velvetleaf [10, 21]: 0 | Plant response rating, Velvetleaf [10, 22]: 0 | Velvetleaf plant response rating ([10]; Preemergence, scale 0 to 100): 0 | Wheat plant response rating ([11]; postemergence, 0-100 scale): 0 | Plant response rating, Wheat [11, 17]: 30 | Plant response rating, Wheat [11, 20]: 0 | Plant response rating, Wheat [11, 21]: 20 | Plant response rating, Wheat [11, 22]: 70 | Wheat plant response rating ([11]; Preemergence, scale 0 to 100): 0 | Nutsedge, Yellow plant response rating ([12]; postemergence, 0-100 scale): 0 | Plant response rating, Nutsedge, Yellow [12, 17]: 0 | Plant response rating, Nutsedge, Yellow [12, 18]: 0 | Plant response rating, Nutsedge, Yellow [12, 19]: 0 | Plant response rating, Nutsedge, Yellow [12, 20]: 0 | Plant response rating, Nutsedge, Yellow [12, 21]: 0 | Plant response rating, Nutsedge, Yellow [12, 22]: 0 | Nutsedge, Yellow plant response rating ([12]; Preemergence, scale 0 to 100): 0
